Legend:
Tra2β = experiment: Immunoblot of Tra2β in HeLa rtTA-HIV-ΔMls cells; type: cell-based, human; details: 3 d with ~IC50s of CSs
Description: Figure 4 CSs suppress HIV-1 gene expression by altering viral RNA processing. […] (a,b) CSs induce oversplicing of HIV-1 RNAs (n ≥ 3, mean, s.e.m.). (a) Diagram of the primer positions (arrow heads) used for qRT-PCR. (b) Graph of the relative amount of US (black), SS (white), and MS (gray) HIV-1 RNAs in cells treated with various CSs. (c) Nuclear export of HIV-1 US RNAs in cells is altered by CSs (representative n ≥ 4). HIV-1 US RNAs were localized by FISH after treating HeLa rtTA-HIV(Gag-GFP) cells as described above but with ~IC90s of CSs. Nuclei were stained by DAPI and images captured at 630 × magnification. […] SRp20, Tra2β, and tubulin were analyzed by immunoblot of HeLa rtTA-HIV-ΔMls cells treated as described above except cells of this representative blot were treated 3 d with ~IC50s of CSs. […]
To monitor HIV-1 gene expression or replication, Gag release into cell culture supernatants were assayed by ELISA using a p24^CA antigen capture assay kit (AIDS & Cancer Virus Program, NCI-Frederick, Frederick, MD USA). […] For analysis of HIV-1 and SR protein expression (and phosphorylation states with calf intestinal alkaline phosphatase treatments), cells were lysed and analyzed by western blot as previously outlined. […] Activation of MAPKs was determined by western blot quantitation and calculation of phospho/total protein levels. […]

[1] = tested on: PBMCs from HIV-infected patients; experiment: Cell viability by XTT in HIV-infected patient PBMCs; type: cell-based, human; details: up to 20 d of culture, relative to controls
Method: Figure 2 CSs inhibit the growth of clinical strains of HIV isolated from HIV infected patients. PBMCs from HIV infected patients were depleted of CD8^+ T cells (Supplementary Fig. S3), activated by anti-CD3 and anti-CD28 antibodies, and treated 20 d with indicated concentrations of drug/compound. HIV particle formation was quantitated by p24^CA ELISA of cell supernatants and viability of cells were assayed by XTT. […] (a–e) CSs potently impair the outgrowth of HIV from HIV-infected PBMCs (n = 3, mean, s.e.m.). Graphs of viral growth (p24 protein levels) and cell viability (gray circles, adjacent y-axis) of cells treated with drug/compounds (red triangles) or DMSO (black circles) are shown. The drug 3TC and the CS digoxin (d–e) were provided for comparison. […] Dose-response curves of CS effects on HIV replication (relative Gag expression, black circles) and cell viability (gray circles) were measured on day 14.
Human PBMCs were obtained for experiments from drug-naïve HIV-infected patients, depleted of CD8^+ T cells using Dynabeads CD8 (Invitrogen, #111.47D), activated with anti-CD3 and anti-CD28 antibodies, and treated as previously described and above[10],[11]. […] HIV growth in cultures was monitored by p24^CA ELISA of cell supernatants harvested (detailed below) and the effect of compounds on cell viability were monitored by XTT assay.

[2] = parameters: method as in PMID 23555254, PMID 17706876, PMID 6409639; details: cited from earlier work

Row | SMILES | abundance of a modified species of Tra2β (Tra2β) | cell viability of HIV-infected PBMCs [1] | recommended serum concentration in patients treated for heart conditions [2] [nM]
1 | CC(=O)O[C@H]1C[C@H](O[C@H]2[C@@H](O)C[C@H](O[C@H]3[C@@H](O)C[C@H](O[C@H]4CC[C@@]5(C)[C@H](CC[C@@H]6[C@@H]5C[C@@H](O)[C@]5(C)[C@@H](C7=CC(=O)OC7)CC[C@]65O)C4)O[C@@H]3C)O[C@@H]2C)O[C@H](C)[C@H]1O[C@@H]1O[C@H](CO)[C@@H](O)[C@H](O)[C@H]1O [Lanatoside C] | no effect |  | 
2 | C[C@H]1O[C@@H](O[C@H]2[C@@H](O)C[C@H](O[C@H]3[C@@H](O)C[C@H](O[C@H]4CC[C@@]5(C)[C@H](CC[C@@H]6[C@@H]5CC[C@]5(C)[C@@H](C7=CC(=O)OC7)CC[C@]65O)C4)O[C@@H]3C)O[C@@H]2C)C[C@H](O)[C@@H]1O [Digitoxin] |  | no observable changes in cell viability | 20 to 34
3 | C[C@]12CC[C@H](O)C[C@H]1CC[C@@H]1[C@@H]2CC[C@]2(C)[C@@H](C3=CC(=O)OC3)CC[C@]12O [Digitoxigenin] | no effect | no observable changes in cell viability | 

Source: PMC5770468, “Cardiac glycoside/aglycones inhibit HIV-1 gene expression by a mechanism requiring MEK1/2-ERK1/2 signaling” (Scientific Reports, 2018)
